# From patent US20150045410A1, “METHOD OF REGULATING CFTR EXPRESSION AND PROCESSING” (University of Iowa Research Foundation, priority 2012, published 2015)
# Experiments:
# CFTR-ΔF508 = experiment: Immunoblot (HA antibody) in HeLa cells stably expressing HA-tagged CFTR-ΔF508; assay type: cell-based; details: CFTR-ΔF508-3HA
# Procedure: (Wang, X. et al. Hsp90 cochaperone Aha1 downregulation rescues misfolding of CFTR in cystic fibrosis. Cell 127, 803-815 (2006)): Cell lines or primary cultures were washed with PBS and lysed in freshly prepared lysis buffer (1% Triton, 25 mM Tris pH 7.4, 150 mM NaCl, protease inhibitors (cOmplete™, mini, EDTA-free, Roche)) for 30 min at 4° C. The lysates were centrifuged at 14,000 rpm for 20 min at 4° C., and the supernatant quantified by BCA Protein Assay kit (Pierce). 20 μg (Calu-3) and 50 μg (human primary airway epithelial cultures, HeLa, HEK293T) of protein per lane was separated on a 7% SDS-PAGE gel for western blot analysis. Antibodies were procured for SIN3A (1:1000, R&D Systems), CTCF (1:500, Cell Signaling Technology), CFTR (R-769 (1:2000, CFFT), MM13-4 (1:1000, Millipore), M3A7 (1:500, Millipore), 24-1 (1:1000, R&D Systems)), hemagglutinin (1; 1000, Covance) and α-tubulin (1:10000, Sigma). Protein abundance was quantified by densitometry using an Alphalnnotech Fluorochem Imager (Alphalnnotech). For CFTR, band B and C were quantified separately. All bands were normalized to α-tubulin. Experiments were performed in triplicates per donor and mean and standard error of the mean determined using unpaired two-tailed t-test. […] If signal was detected, the stripping procedure was repeated till no signal was observed. […]
# SIN3A = SIN3A mRNA (RT-qPCR) and protein (immunoblot) in primary human airway epithelia; assay type: cell-based; details: polarized primary human airway epithelia; mRNA 24 hrs, protein 72 hrs post-transfection
# Procedure: Airway epithelia from human trachea and primary bronchus removed from organs donated for research were cultured at the air-liquid interface (ALI) (Karp, P. H. et al. An in vitro model of differentiated human airway epithelia. Methods for establishing primary cultures. Methods Mol. Biol. 188, 115-137 (2002)). These studies were approved by the Institutional Review Board of the University of Iowa. Briefly, airway epithelial cells were dissociated from native tissue by pronase enzyme digestion. Permeable membrane inserts (0.6 cm^2 Millipore-PCF, 0.33 cm^2 Costar-Polyester) pre-coated with human placental collagen (IV, Sigma) were seeded with freshly dissociated epithelia. […]
# First-strand cDNA was synthesized using SuperScript® II (Invitrogen), and oligo-dT and random-hexamer primers. […] To quantitate miRNAs, TaqMan® microRNA Assays (Applied Biosystems) were obtained for miR-138, RNU48 (control) and 8 other miRNAs (negative control, miRs-21, -24, -26a, -200c, -146a, -146b, -27a*, -134). […] All experiments were performed in quadruplicate. mRNA and miRNA quantification in cell lines represents 8 independent transfections in 4 separate experiments. mRNA quantification in human primary airway epithelial cultures represent 8 independent transfections in 8 non-CF donors and 4 CF donors. […]
Substance,"abundance of the mature, fully glycosylated CFTR band C (CFTR-ΔF508)",SIN3A mRNA and protein levels (SIN3A)
"SIN3A DsiRNA: Dicer-substrate siRNA against SIN3A, sense SEQ ID NO: 6, antisense SEQ ID NO: 7 (sense GCGAUACAUGAAUUCAGAUACUACC; antisense GGUAGUAUCUGAAUUCAUGUAUCGCUC; chemistry not given here)",increased,–
"miR-138 mimic: synthetic modified RNA duplex, sense SEQ ID NO: 4, antisense SEQ ID NO: 5, showing miR-138-like activity",increased,reduced
